The subject of one experiment is chronic wounds. Set-up: key: N.S. = not statistically significant. Particulars: cited from earlier work.
In another experiment the test system is human keratinocytes. The experiment can be described thus: Stimulation of keratinocytes: expression of antimicrobial peptides/polypeptides (Northern blot, ELISA, immunoblot, immunostaining). Type of experiment: cell-based. Conditions: for expression of the antimicrobial peptides/polypeptides hCAP-18, hBD-3, NGAL, and SLPI: human keratinocytes; for mRNA for hBD-3 (induction): not detected in unstimulated cells. The method, then:
SDS-PAGE and immunoblotting were performed with Bio-Rad systems according to instructions given by the manufacturer (Bio-Rad, Hercules, Calif.). For immunoblotting, after the transfer of proteins from the 14% polyacrylamide gels, the polyvinylidene difluoride (PVDF) membranes (Millipore, Bedford, Mass.) were blocked for 1 h with 5% skimmed milk in PBS. For detection of hCAP-18, NGAL, and SLPI, the PVDF membranes were incubated overnight with primary antibodies. The following day, the membranes were washed and incubated for 2 h with alkaline phosphatase-conjugated secondary antibodies (DAKO, Glostrup, Denmark) then washed and visualized by 5'-bromo-chloro-indolyl phosphate (Sigma-Aldrich) and nitro blue tetrazolium (Sigma-Aldrich). Medium from keratinocytes was extracted with MacroPrep CM Support beads (Bio-Rad) overnight at 4° C. The beads were subsequently washed and bound material was eluted with 30% acetic acid. The eluted material was dialyzed in 5% acetic acid and lyophilized before resuspension in sample buffer for acid urea (AU)-PAGE. AU-PAGE and immunoblotting were performed according to instructions given by the manufacturer (Hoeffer, San Francisco, Calif.). After transfer of proteins from the 12.5% acrylamide gels, the PVDF membranes were fixed for 30 min in TBS with 0.05% glutaraldehyde (Sigma-Aldrich), followed by blocking with Superblock Blocking Buffer (Pierce, Rockford, Ill.). For visualization of hBD-3, the PVDF membranes were incubated overnight with primary antibodies. The following day, the membranes were incubated for 2 h with HRP-conjugated secondary antibodies, (Pierce) and visualized by Immun-Star HRP luminal/enhancer and Immun-Star peroxide buffer (Bio-Rad). Cells were grown in serum-free keratinocyte medium from Clonetics (KGM-2 Bullet Kit; San Diego, Calif.) with bovine pituitary extract, transferrin, human epidermal growth factor (EGF), hydrocortisone, gentamicin, amphotericin B, and epinephrine, but without insulin. Cells were stimulated beginning 24 h after complete confluence was reached. Cells and medium was harvested 0, 3, 6, 12, 24, and 48 h after stimulation with IGF-I (100 ng/mL), TGF-α (50 ng/mL), TGF-β1 (10 ng/mL), hFGF (100 ng/mL), IGF-I/TGF-α, IL-1β (20 ng/mL), IL-6 (100 ng/mL), EGF (100 ng/mL), and INF-α (20 ng/mL). […] The RNA was transferred to a Hybond-N membrane (Amersham Pharmacia Biotech, Little Chalfont, U.K.) by capillary blotting and was fixed by UV irradiation. The filters were pre-hybridized for a minimum of 30 min at 42° C. in 10 mL of ULTRAhyb (Ambion, Austin, Tex.) and hybridized overnight at 42° C. after the addition of an additional 5 mL of ULTRAhyb containing the P-labeled probe. The membranes were washed twice for 5 min each time at 42° C. in 2×SSC (1×SSC=150 mM NaCl/15 mM sodium citrate, pH 7.0)/0.1% SDS, followed by twice for 15 min each time in 2×SSC/0.1% SDS, once for 15 min in 0.2×SSC/0.1% SDS, and once for 15 min in 0.1×SSC/0.1% SDS at 42° C. The blot was developed and quantified by a phosphorimager (Fuji Imager Analyzer BAS-2500, Image Reader version 1.4E, image Gauge version 3.01 software; Fuji, Stockholm, Sweden). The sizes of the mRNAs were determined by reference to 18S and 285 rRNA, which were visualized by ethidium bromide staining. The membranes were stripped by boiling in 0.1% SDS before re-hybridization. The probes used for hybridization were cDNA fragments radiolabeled with [α-P]dCTP using the Random Primers DNA Labeling System (Life Technologies). The probes NGAL, hCAP-18, hBD-2, and β-actin have previously been described. The probes for SLPI, hBD-1, and hBD-3 were amplified from cDNA from keratinocytes with the following primers: SLPI, [NT] II) NO: 1), and [NT] ID NO: 2); hBD-1, [NT] ID NO: 3), and [NT] ID NO: 4); and hBD-3, [NT] ID NO: 5), and [NT] ID NO: 6). The probe for hBD-4 was amplified from genomic DNA using the following primers: [NT] ID NO: 7) and [NT] II) NO: 8). PCR-amplified probes were cloned into plasmids and verified by DNA sequencing. […]

The test system of the next experiment is CBA Epidermal Culture. Kind of experiment: Tissue repair in human epidermal cell culture with 4-mm defect (bFGF, M-007). The class given is cell-based. As for the experimental part: A 4-mm mucosal defect was surgically made in the CBA Epidermal Culture. The formulation Sol. of bFGF, M-007, and control saline was injected along the edge of the wound defect immediately after scratch. The control group received only phosphate-buffered saline vehicle.
By day 5, FGFR1-positive cells were seen below the stratum corneum, even in the control group. […] Each sample was repeated in duplicate, thus FIG. 2 represents the average of each sample. P1-2 are control plates 1 and 2 and are epidermal cell culture with no external treatment. P3-4 is epidermal cell culture treated with phosphate buffered saline only. P5-6 is epidermal cell culture treated with bFGF. P7-8 is epidermal cell culture treated with bFGF sol. No. 00376. […] No. 00321A. […] No. 0032113. […] No. 00321A @ 70/30 ratio. […] No. 00321A @ 30/70 ratio. […] No. 00321A 70/30 ratio. P21-22 is epidermal cell culture treated with bFGF sol. […] No. 00321A @50/50 ratio. P23-24 is epidermal cell culture treated with bFGF sol. […] No. 00321A @30/70 ratio.

The next experiment concerns skin wounds. The experiment can be described thus: Screen of tigerinin-based peptides for wound-healing ability. An excerpt:
Two antimicrobial peptides (tigerinin-RC1: […] (SEQ ID NO: 9); tigerinin-RC2: […] (SEQ ID NO: 10)) have been previously identified from the skin secretions of Fejervarya cancrivora. […] Here, several peptides based on tigerinins are synthesized to screen candidates containing potential wound-healing ability.

Read-outs that look alike come from different tables or passages of the source. Ends that are not written are not given here.

The source of these data is US11376231B2, “Compositions of bioactive fulvate fractions and uses thereof” (OMNI BIOCEUTICAL INNOVATIONS, INC., priority 2016, dated 2022).

Regarding “EGF: epidermal growth factor (NSDSECPLSHDGYCLHDGVCMYIEALDKYACNCVVGYIGERCQYRDLKWWELR; UniProt P01133 971-1023, looked up)”, in the experiment on chronic wounds (venous (44), 10 μg/mL twice per day, Falanga et al.), the Results entry is reported as “N.S”.

As for “GM-CSF: granulocyte-macrophage colony-stimulating factor”, in the experiment with chronic wounds (venous + arterial (25), 400 μg injected once around the wound, da Costa et al.), the Results entry is recorded as “N.S”.

Take HGH: human growth hormone: the Results result in the experiment on chronic wounds (venous (37), 1 IU/cm^2 per week, Rasmussen et al.) is “N.S”.

Turning to IGF-I: insulin growth factor-1, in the experiment on human keratinocytes (24 h), the “expression of hBD-1 relative to the housekeeping gene β-actin” value is reported as 3 fold. In addition, the “expression of hBD-1 relative to the housekeeping gene β-actin” value in the experiment with human keratinocytes (48 h) is on record as 7 fold. The “expression of the antimicrobial peptides/polypeptides hCAP-18, hBD-3, NGAL, and SLPI” value in the experiment on human keratinocytes was “induce or enhance”. Also, in the experiment with human keratinocytes (keratinocytes), the “hCAP-18 at the protein level (ELISA) and the mRNA level” value is “up-regulated”; the “mRNA for hBD-3 (induction)” value is given as “did not induce”.

In the case of IL-1B: interleukin-1B, the Results entry in the experiment with chronic wounds (pressure (25), 0.01, 0.1, and 1 μg/cm^2 daily, Robson et al.) is “N.S”.

Turning to TGF-α: a transforming growth factor, in the experiment on human keratinocytes, the “expression of the antimicrobial peptides/polypeptides hCAP-18, hBD-3, NGAL, and SLPI” value is “induce or enhance”. The “mRNA for hBD-3 (induction)” value in the experiment with human keratinocytes (keratinocytes) was “significantly induced”. The “hBD-3 in the medium by immunoblot” value in the experiment with human keratinocytes (medium from stimulated keratinocytes, not in unstimulated cells) is “detected”.

As to bFGF: basic fibroblast growth factor, in the experiment with CBA Epidermal Culture, the “collagen maturation (histologic analysis)” value is listed as “relatively faster”; the “granular tissue formation and re-epithelialization” value was “significantly accelerated”. Further, the “number and intensity of FGFR1-positive cells versus control group” value in the experiment with CBA Epidermal Culture (day 5) was “greater than in the control group”. Also, the Results entry in the experiment on chronic wounds (diabetic (17), 0.25 to 0.75 μg/cm^2 daily, Richard et al.) is “N.S”. For the same substance, the Results result with chronic wounds (pressure (50), 1, 5, and 10 μg/cm^2, Robson et al.) was “N.S”.

“c [WCKPKPKPRCH-NH2] (SEQ ID NO: 11) (not fully specified (bridges); also: cyclic, ring type and places not given here; listed as Fejervarya cancrivora) [M-007 fulvate isolated peptide, tigerinin-based synthesized small peptide]”: the wound-healing ability entry in the experiment with skin wounds is “potent healer of skin wounds”.
